# Laboratory results reported in patent US10406218B2 (priority 2014, dated 2019).
# Like-named read-outs stand apart in the source and are kept apart here.
# Key:
# Type in all cases: cell-based, human
# [1] = test system: PBMC from 30 HC individuals; experiment: ex vivo IFNγ ELISPOT with NTM-specific peptides
# [2] = test system: IL-10 production by cells of HC donors; conditions: for IL-10 SFC: HC donors; for # resp IL-10: number of responding HC donors out of # tested (5 or 6)
# [3] = test system: IFNγ production by cells of HC donors; experiment: IFNγ production (SFC) in HC donors in response to broadly conserved peptides; conditions: for IFNg SFC: HC donors; for # resp IFNg: number of responding HC donors out of # tested (5 or 6)
# Experimental: To test this hypothesis, the HLA binding capacity of the 4241 broadly conserved peptides for common HLA class II alleles was predicted. Next peptides were selected predicted to bind with high affinity to alleles expressed in representative HC donors were tested for IL-10 production. Several frequently recognized IL-10 producing peptides could be identified (FIG. 13A), none of which produced a significant amount of IFNγ (FIG. 13B).
# [4] = response frequency among HC donors, NTM-specific peptides (Table 2)
# [5] = total spot forming cells, IFNγ ELISPOT, NTM-specific peptides (Table 2)
Substance,"Resp Freq [1, 4]","Total SFC [1, 5]",IL-10 SFC [2],# resp IL-10 [2],IFNg SFC [3],# resp IFNg [3],Resp Freq [1],Total SFC [1]
937 (HLMQSVVMVSFPVEV) [Peptide 937],3%,22 SFC,–,–,–,–,–,–
945 (ALIHVLWINAGLSCD) [Peptide 945],3%,23 SFC,–,–,–,–,–,–
953 (FEHSVVNMFLFPSGL) [Peptide 953],3%,25 SFC,–,–,–,–,–,–
963 (VLVVFLLPALRDGAP) [Peptide 963],3%,25 SFC,–,–,–,–,–,–
1001 (KGGLRFHPSVYLGIV) [Peptide 1001],3%,37 SFC,–,–,–,–,–,–
1004 (ARQMLRFLSSPLWRA) [Peptide 1004],3%,27 SFC,–,–,–,–,–,–
1072 (HIELALYRIAQECLQ) [Peptide 1072],3%,37 SFC,–,–,–,–,–,–
1075 (SPEQAYLLLGAAPIE) [Peptide 1075],3%,22 SFC,–,–,–,–,–,–
1077 (GFVTEFLQREVQNFL) [Peptide 1077],3%,22 SFC,–,–,–,–,–,–
1132 (FLFTMLQKTLKGNIF) [Peptide 1132],3%,35 SFC,–,–,–,–,–,–
1134 (TLLTMLWQNLIGNAV) [Peptide 1134],3%,47 SFC,–,–,–,–,–,–
1141 (HAEYKQVTVLFADVV) [Peptide 1141],3%,38 SFC,–,–,–,–,–,–
1196 (MVWRAAAAIELGICD) [Peptide 1196],3%,35 SFC,–,–,–,–,–,–
1204 (TPGLNLVYAHLNRII) [Peptide 1204],3%,30 SFC,–,–,–,–,–,–
1218 (RTFFRYFPTKESVLF) [Peptide 1218],3%,48 SFC,–,–,–,–,–,–
1244 (LIFDGVFDRFPTLRI) [Peptide 1244],3%,35 SFC,–,–,–,–,–,–
1255 (GNELWQIALLELWLQ) [Peptide 1255],3%,37 SFC,–,–,–,–,–,–
1284 (NAVLFLASDEARYIT) [Peptide 1284],3%,25 SFC,–,–,–,–,–,–
1285 (PADASIVKLYYSELL) [Peptide 1285],3%,53 SFC,–,–,–,–,–,–

Substance,"Resp Freq [1, 4]","Total SFC [1, 5]",IL-10 SFC [2],# resp IL-10 [2],IFNg SFC [3],# resp IFNg [3],Resp Freq [1],Total SFC [1]
1331 (VEAGMVYVTLPPLFV) [Peptide 1331],3%,58 SFC,–,–,–,–,–,–
1334 (FFDAGLVVFLPIIMT) [Peptide 1334],3%,47 SFC,–,–,–,–,–,–
1350 (LFFLFPLYAMADFST) [Peptide 1350],3%,30 SFC,–,–,–,–,–,–
1368 (TMMLSLVWPIASLGF) [Peptide 1368],3%,40 SFC,–,–,–,–,–,–
1393 (ANVRYISGAPQLWVV) [Peptide 1393],3%,42 SFC,–,–,–,–,–,–
1452 (TTPHFLVEGAIIAAY) [Peptide 1452],3%,43 SFC,–,–,–,–,–,–
1458 (HFVSTLSATFPEGED) [Peptide 1458],3%,47 SFC,–,–,–,–,–,–
1474 (MFETMAAFMLVEHAN) [Peptide 1474],3%,23 SFC,–,–,–,–,–,–
1525 (FFHRGLMLMSFDEHL) [Peptide 1525],3%,25 SFC,–,–,–,–,–,–
1526 (VATVRAASSLVRAPL) [Peptide 1526],3%,27 SFC,–,–,–,–,–,–
1529 (EGIVFALGGALDFSY) [Peptide 1529],3%,23 SFC,–,–,–,–,–,–
1542 (GRVAWNIVTSYLDSA) [Peptide 1542],3%,52 SFC,–,–,–,–,–,–
1549 (RILQVFTEAYADVER) [Peptide 1549],3%,48 SFC,–,–,–,–,–,–
1571 (ADGLVLFNRFLQPDI) [Peptide 1571],3%,48 SFC,–,–,–,–,–,–
AELTRVRQQVIQLLS [Peptide 3580.0001],–,–,733 SFC,4,27 SFC,0,–,–
AKSVLIFLGIPLLAG [Peptide 3580.0010],–,–,892 SFC,4,35 SFC,0,–,–
ALLYIPLLTRMLMNL [Peptide 777],7%,87 SFC,–,–,–,–,7%,87 SFC
APFISEFLVLLGTFS [Peptide 3580.0005],–,–,585 SFC,3,15 SFC,0,–,–
DPLIFFRPRVERLFG [Peptide 720],10%,125 SFC,–,–,–,–,10%,125 SFC

Substance,"Resp Freq [1, 4]","Total SFC [1, 5]",IL-10 SFC [2],# resp IL-10 [2],IFNg SFC [3],# resp IFNg [3],Resp Freq [1],Total SFC [1]
ETTRNLIALGTLALI [Peptide 829],3%,93 SFC,–,–,–,–,3%,93 SFC
GRLIGWLAKVLAEHP [Peptide 1258],3%,60 SFC,–,–,–,–,3%,60 SFC
GSMLWVAALIGEEIF [Peptide 587],7%,68 SFC,–,–,–,–,7%,68 SFC
HEEIQLLANDFSTML [Peptide 446],3%,182 SFC,–,–,–,–,3%,182 SFC
HQGLAFLLADMAAAV [Peptide 8],3%,58 SFC,–,–,–,–,3%,58 SFC
KDVFFYEPIILPEKS [Peptide 752],3%,78 SFC,–,–,–,–,3%,78 SFC
KWETFLTQELPAYLA [Peptide 741],13%,248 SFC,–,–,–,–,13%,248 SFC
LGVAALLFGFPIFFD [Peptide 391],3%,77 SFC,–,–,–,–,3%,77 SFC
LMLIWACDLIVAADN [Peptide 1224],10%,97 SFC,–,–,–,–,10%,97 SFC
LMVLFQYGVALHELE [Peptide 7],3%,138 SFC,–,–,–,–,3%,138 SFC
PKLKQFMSDVVWIEH [Peptide 775],7%,70 SFC,–,–,–,–,7%,70 SFC
PLAENYLRLNALGAY [Peptide 1364],3%,228 SFC,–,–,–,–,3%,228 SFC
QWGYRMVLPQLILMP [Peptide 868],3%,58 SFC,–,–,–,–,3%,58 SFC
RFTLLRPLLFTIAYE [Peptide 311],3%,477 SFC,–,–,–,–,3%,477 SFC
RLFPVIRRYALAYHV [Peptide 582],10%,158 SFC,–,–,–,–,10%,158 SFC
SLHMFFHRLGPVLAR [Peptide 329],7%,167 SFC,–,–,–,–,7%,167 SFC
SQRLVTLSYRLDAAA [Peptide 1471],7%,58 SFC,–,–,–,–,7%,58 SFC
YNVVIYPVTTLRLAM [Peptide 1556],3%,122 SFC,–,–,–,–,3%,122 SFC
